The results in this text go back to patent US20210308101A1, “METHODS OF TREATING FIBROMYALGIA” (Aptinyx Inc., priority 2019, published 2021).

The subject of assay [1] is subjects with fibromyalgia. Nature of the assay: QST: cuff algometry. The format is in vivo, human. On the procedure: Large volume, deep tissue pressure sensitivity was assessed by cuff algometry. Calibrated cuff pain stimuli were delivered to the gastrocnemius area of the lower leg using a validated MRI-compatible cuff pain device. This system included an air compressor, computerized pressure controller, and a 13.5 cm×82.5 cm Velcro-adjusted pressure cuff (similar to a blood pressure cuff). Subjects first received an ascending series of cuff pressures, starting at 20 mmHg and increasing in 20-mmHg steps (10- to 14-second duration pressures, 20-second interstimulus interval) to tolerance or a maximum of 400 mmHg. Each pressure was rated after deflation on a 0 to 100 NRS. These pain ratings were used to interpolate a series of 9 tolerable cuff pressures that were delivered in pseudo-randomized order and rated individually. […] Curves were constructed for each participant and used for analysis of drug and placebo effects. An abbreviated form of cuff algometry was performed during fMRI as an evoked pain stimulus.
QST data were analyzed at the University of Michigan CPFRC. Dependent variables were the MAST derived outcomes (Pain50, pressure pain threshold, pain tolerance, and pain ratings at 2 kg/cm2), algometry-derived pressure pain thresholds (mean of three trials) at each anatomical site, average cuff intensity ratings (mean of ratings at all stimulus levels during the ascending or random sequences), and average visual task unpleasantness and brightness intensity ratings (mean of ratings at all stimulus levels). Practice data were not analyzed. Overall pain intensity and unpleasantness NRS scores as well as stimulus response curves for each test were assessed during post hoc analyses. Data points displaying measurement artefacts, including device malfunction or user error, were set to missing. Single subject QST variables were analyzed using paired t-tests and/or nonparametric Wilcoxon signed-rank tests in SPSS or R.

In assay [2] the test system is subjects with fibromyalgia. Nature of the assay: PROMISFM fatigue profile. The format is in vivo, human. An excerpt:
As used herein, the “PROMISFM” fatigue profile is Patient Reported Outcomes Measurement Information System Fibromyalgia, which is a 16-question instrument which has four 4-item short forms that examines the intensity of the impact of fatigue in social, cognitive and motivation subdomains. All 16 questions are based on a 5-point numerical rating scale/Likert scale ranging from 1 to 5, with different categorical responses. Lower scores represent a better quality of life. The PROMISFM fatigue profile is made of the 4 following subdomains: • Experience Subdomain Score 3 Questions with Scores Ranging from 1 (Not at All) to 5 (Very Much): • How tired did you feel on average? • How fatigued were you on average? • How exhausted were you on average? 1 Question with Scores Ranging from 1 (None) to 5 (Very Severe): • What was the level of your fatigue on most days? • Sum of those 4 Questions make up the Experience Subdomain Score Ranging from 4 to 20 • Social Impact Subdomain Score 2 Questions with Scores Ranging from 1 (Not at All) to 5 (Very Much): • To what degree did your fatigue interfere with your social activities? • To what degree did your fatigue interfere with your ability to engage in recreational activities? 2 Questions with Scores Ranging from 1 (Never) to 5 (Always): • How often did you have to limit your social activities because of your fatigue? • How often were you too tired to socialize with your friends? • Sum of those 4 Questions make up the Social Impact Subdomain Score Ranging from 4 to 20 • Motivational Impact Subdomain Score 2 Questions with Scores Ranging from 1 (Not at All) to 5 (Very Much): • To what degree did you have trouble starting things because of your fatigue? • To what degree did you have trouble finishing things because of your fatigue? […] 2 Questions with Scores Ranging from 1 (Never) to 5 (Always): • How often were you too tired to think clearly? • How often did your fatigue make you more forgetful? • Sum of those 4 Questions make up the Cognitive Impact Subdomain Score Ranging from 4 to 20
If at least 2 questions were answered within an individual subdomain, that subdomain score was imputed if missing responses are present. Each subdomain score was multiplied by 4/(number of questions answered) and rounded off to the nearest whole number. Otherwise, that subdomain score was set to missing. The total score was calculated by taking the sum of those 4 subdomains and ranged from 16 to 80. If any of the subdomains were missing, the total score was set to missing. The PROMISFM fatigue profile assessment was collected and analyzed at visits Screening, Day 1, Week 2, Week 4, Week 6, and Follow-up (Week 7). The observed total and subdomain scores, changes from baseline, and changes from treatment periods were summarized using descriptive statistics. Additionally, the treatment group comparisons were analyzed using the paired t-test and nonparametric Wilcoxon signed-rank test. All PROMISFM fatigue profile data collected and the calculated total and subdomain scores at each visit were presented in a subject listing.

`CC(C)C(=O)N1CCC[C@]12CN([C@H](C(N)=O)[C@@H](C)O)C2=O` [NYX-2925, (2S, 3R)-3-hydroxy-2-((R)-5-isobutyryl-1-oxo-2,5-diazaspiro[3.4]octan-2-yl)butanamide]: the “mean pain intensity rating of the Cuff Random paradigm” value in assay [1] (NYX-2925 20 mg relative to baseline, p=0.073) is on record as “marginally reduced”. Besides, the “Cuff Random Pain50 threshold” value in assay [1] (NYX-2925 20 mg, baseline 151.89±110.64, p=0.031) was 193.00±128.16 mmHg; in assay [1] (NYX-2925 200 mg, baseline 157.70±110.78, p=0.038) it was 209.80±132.51 mmHg. In addition, the “cuff algometry procedure overall unpleasantness rating” value in assay [1] (Week 7 follow-up, after cessation of NYX-2925, p=0.040 vs 200 mg) is given as 30.00±22.82; in assay [1] (treatment with NYX-2925 200 mg (Week 6)), 25.00±19.15. Also, the “PROMISFM total fatigue profile score, change from baseline” value in assay [2] (NYX-2925 20 mg) is reported as “reductions from baseline”. Besides, the “PROMISFM Cognitive Impact Subdomain Score, changes from Week 2 (placebo)” value in assay [2] (NYX-2925 treatment at Weeks 4 and 6) is “not statistically significant”. Further, the “PROMISFM Fatigue Profile Total Score, mean change” value in assay [2] (Week 2 (placebo) to Week 4 (NYX-2925 20 mg), not statistically significant) is −3.4; in assay [2] (Week 2 (placebo) to Week 6 (NYX-2925 200 mg), p=0.0049) it was −5.6. Further, the “PROMISFM Experience Subdomain Score, mean change” value in assay [2] (Week 2 (placebo) to Week 6 (NYX-2925 200 mg), p=0.0036) is −2.2. Also, in assay [2] (Week 2 (placebo) to Week 6 (NYX-2925 200 mg), p=0.0329), the “PROMISFM Social Impact Subdomain Score, mean change” value is on record as −1.4. Besides, in assay [2] (Week 2 (placebo) to Week 6 (NYX-2925 200 mg), p=0.0490), the “PROMISFM Motivational Impact Subdomain Score, mean change” value is on record as −1.0. In addition, the “PROMISFM Fatigue Profile total score, reduction from baseline” value in assay [2] (week six, after four weeks of NYX-2925, scale 16 to 80, n=21) is given as 5.4 point.
